According to patent US4005076A, “Hydrazones of 3-formylrifamycin SV” (Gruppo Lepetit S.p.A., priority 1971, dated 1977):
Values after ≈ are worked out from the molar mass of the structure shown.

Key:
[1] = tested on: Staphylococcus aureus strain which is resistant to rifampicin (Staph. aureus Tour); experiment: in vitro minimal inhibitory concentration against rifampicin-resistant Staphylococcus aureus strain; format: cell-based; settings: Staphylococcus aureus, read-out: Minimal inhibitory concentration
Method: In particular, compounds illustrative of the invention at concentrations of about 10 to 20 μg/ml or less inhibit the growth of a Staph. aureus Tour strain resistant to rifampicin.
One of the most important characteristics of the new hydrazones is their activity against rifampicin-resistant Staphylococcus aureus strains. Rifampicin, that is 3-(4-methyl-1-piperazinyl)iminomethylrifamycin SV, disclosed in U.S. Pat. No. 3,342,810, is the most known and widely used rifamycin derivative in therapeutic practice.
The data of the new compounds are compared with those of representative hydrazones disclosed in U.S. Pat. No. 3,342,810.

[2] = target: T1, RNA-dependent DNA polymerase of murine sarcoma virus (Moloney murine leukemia virus, UniProt P03355); experiment: inhibition of RNA-dependent DNA polymerase of murine sarcoma virus (3H-dTTP incorporation); format: biochemical; settings: at a concentration of 2-100 μg/ml or less; 60 min
T1 construct: The virion polymerase was purified 20-40 fold; made in house; host or cells: virions from MSV (Moloney) transformed rat 78A1 cells and MSV (Harvey) transformed mouse MEH cells; disrupted virus or polymerase purified 20-40 fold
Method: The inhibiting activity of the inventive compounds has been tested on RNA-dependent DNA polymerase of murine sarcoma virus (endogenous) and RNA-dependent DNA polymerase activity of purified enzymes. The inhibition was tested according to the methods described by C. Gurgo et al., Nature, New Biology, 229, 111, 1971. The effect of different concentrations of drugs on polymerase activity was determined by following ^3 H-dTTP (tritiated thymine deoxyriboside triphosphate) incorporation into the insoluble fraction. A typical example of the experimental procedures is the following.
Virus was isolated and purified from murine sarcoma virus (Moloney isolate) transformed rat cells (78Al cells) and murine sarcoma virus (Harvey isolate) transformed mouse cells (MEH cells) as previously described (Green et al., Proc. Nat. Acad. Sci. USA 67, 385-393, 1970, Rokutanda et al., Nature, 227, 1026-1028, 1970). The virion polymerase was purified 20-40 fold by incubation of purified virus with 0.5% NP-40 (nonidet P-40) in 0.1 M NaCl, 0.01 M Tris buffer (pH 7.6), 0.001 M EDTA for 5 minutes at room temperature and zonal centrifugation in 15-30% sucrose gradients in 10 mM sodium phosphate buffer (pH 7.4), 2.5 mM MgCl2, 10 mM dithiothreitol, and 5% glycerol for 24 hours at 38,000 rpm in a Spinco SW41 rotor. The peak fractions of enzyme activity (13-17) of 22 fractions collected, were pooled and stored at -70° C. in 30% glycerol.
Enzyme incubation was performed for 1 hour at 37° C. in 100 μl of reaction mixture containing 40 mM Tris buffer (pH 8.0), 5 mM dithiothreitol, 30 mM NaCl, 2.5 mM MgCl2, 0.1 mM dATP, dGTP, dCTP, and 10 μCi of ^3 H-dTTP (12-18 Ci/mmole) as described by Green et al. in Proc. Nat. Acad. Sci. USA 67, 385-393, 1970. The reaction was terminated by the addition of 150 μl of 1N perchloric acid. Calf thymus DNA (100 μg) was added as carrier; the radioactive DNA product was processed as described in the two papers mentioned above. Endogenous RNA-dependent DNA-polymerase activity was measured after the addition of 0.01% NP-40 to purified virus at the time of assay. The DNA-polymerase activity of purified viral polymerase was measured with 2 μg of poly d (A-T) as template and no NP-40.
Rifamycin derivatives of this invention were dissolved in dimethylsulfoxide (DMSO) at a concentration of 5 mg/ml and stored at 4° C. Inhibition of the endogenous RNA-dependent DNA-polymerase activity was tested by adding 2 μl of derivative appropriately diluted in DMSO or 2 μl of DMSO (control) to the assay mixture prior to addition to disrupted virus which contained 15 to 30 μg of viral protein. Enzyme incubation was performed for 60 minutes at 37° C. Inhibition of purified enzyme was tested by pre-incubation of 2 μl of derivative or DMSO with 30 μl of enzyme (1 to 2 μg of protein) for 10 minutes at 37° C.; then 70 μl of substrate mixture were added and the mixture further incubated and processed as described above.

tumor virus polymerases = experiment: inhibition of tumor virus polymerases, native template; format: biochemical; settings: about 5 μg/ml
Method: (§1) DNA polymerase assays were carried out in a final volume of 100 μl. The assay mixture contained Tris-HCl buffer, pH 8.3, 50 mM; MgAc, 6.0 mM; dithiothreitol, 8.0 mM; NaCl, 60 mM. Adjustment of pH was carried out after addition of inhibitors which were previously dissolved in dimethylsulfoxide (DMSO). The final concentration of DMSO was 0.5% and all control samples included this amount of DMSO. An enzyme concentration that catalyzes an incorporation of approximately 1.0 pmole/hr was used in the assay. The enzyme was in most cases preincubated for 5 minutes with the inhibitor. […]
(§2) In these cases, reactions were initiated by adding enzyme to the complete reaction mixture, which included the inhibitor. […] The products were collected on Millipore filter, washed extensively with 5% TCA and 1 ml. of DMSO-ethanol 0.1 M NaCl mixture (0.5:70:29.5), dried and counted in 2 ml. of BBS3 (Beckman) and 10 ml. of liquifluor (New England Nuclear) in a Packard liquid scintillation counter.

normal polymerases = experiment: effect on normal polymerases, native template; format: biochemical; settings: about 5 μg/ml
Method: as §1, §2

[3] = target: T2, sarcoma virus DNA-polymerases (SSV-DNA-P) (Woolly monkey sarcoma virus, UniProt P03359); experiment: effect on activity of SSV-polymerase; format: biochemical; settings: template Oligo dT.Poly rA
T2 construct: sarcoma virus DNA-polymerases (SSV-DNA-P)
Text: Templates used in the Enzymatic Assays were the following: SSV-DNA-P: […]

[4] = tested on: mouse embryo DNA-polymerase I (ME-DNA-P1); experiment: effect on mouse embryo DNA-polymerase I; format: biochemical; settings: activated Calf-Thymus DNA
Text: (§3) Oligo dT.Poly rA. ME-DNA-P1 and ME-DNA-p2 : activated

[5] = tested on: mouse embryo DNA-polymerase II (ME-DNA-P2); experiment: effect on mouse embryo DNA-polymerase II; format: biochemical; settings: activated Calf-Thymus DNA
Text: as §3

[6] = target: T3, mouse embryo RNA-polymerase I (ME-RNA-P1) (Mus musculus, UniProt O35134+P70700); experiment: effect on mouse embryo RNA-polymerase I; format: biochemical
T3 construct: mouse embryo RNA-polymerase I (ME-RNA-P1); endogenous in cells; host or cells: mouse embryo cells
Text: (§4) Calf-Thymus DNA. Me-RNA-P1 and ME-RNA-P2 : Single Stranded

[7] = target: T4, mouse embryo RNA-polymerase II (ME-RNA-P2) (Mus musculus, UniProt P08775+Q8CFI7); experiment: effect on mouse embryo RNA-polymerase II; format: biochemical
T4 construct: mouse embryo RNA-polymerase II (ME-RNA-P2); endogenous in cells; host or cells: mouse embryo cells
Text: as §4

T2 sequence (P03359 642-1310): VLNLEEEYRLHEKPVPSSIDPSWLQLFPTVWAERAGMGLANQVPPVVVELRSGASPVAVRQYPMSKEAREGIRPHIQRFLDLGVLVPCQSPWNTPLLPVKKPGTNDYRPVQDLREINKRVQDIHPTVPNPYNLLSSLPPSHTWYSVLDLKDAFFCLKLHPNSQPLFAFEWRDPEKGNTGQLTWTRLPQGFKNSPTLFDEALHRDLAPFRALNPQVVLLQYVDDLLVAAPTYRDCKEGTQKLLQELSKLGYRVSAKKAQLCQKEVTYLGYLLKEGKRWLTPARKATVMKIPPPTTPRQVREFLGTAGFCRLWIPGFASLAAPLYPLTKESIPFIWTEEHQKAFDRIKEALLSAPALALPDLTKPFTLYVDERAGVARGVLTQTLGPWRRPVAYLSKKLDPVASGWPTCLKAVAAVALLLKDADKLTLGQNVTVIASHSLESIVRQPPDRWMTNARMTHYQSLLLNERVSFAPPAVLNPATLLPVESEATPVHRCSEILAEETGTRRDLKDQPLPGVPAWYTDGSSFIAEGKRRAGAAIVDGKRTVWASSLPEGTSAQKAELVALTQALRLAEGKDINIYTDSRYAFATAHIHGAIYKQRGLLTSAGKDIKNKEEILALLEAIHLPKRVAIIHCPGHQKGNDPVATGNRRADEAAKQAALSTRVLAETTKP

## COC1C=COC2(C)Oc3c(C)c(O)c4c(O)c(c(C=NN(c5ccccc5)c5ccccc5)c(O)c4c3C2=O)NC(=O)C(C)=CC=CC(C)C(O)C(C)C(O)C(C)C(OC(C)=O)C1C (stereo not shown) [Example 11]
[1]
  MIC: 2 µg/mL (≈ 2.24 µM)
[2]
  incorporation of H3-dTTP relative to that found in the control tests: less than 10%

## COC1C=COC2(C)Oc3c(C)c(O)c4c(O)c(c(C=NNc5ccc([N+](=O)[O-])cc5[N+](=O)[O-])c(O)c4c3C2=O)NC(=O)C(C)=CC=CC(C)C(O)C(C)C(O)C(C)C(OC(C)=O)C1C (stereo not shown) [Example 12]
[1]
  MIC: 10 µg/mL (≈ 11 µM)
[2]
  incorporation of H3-dTTP relative to that found in the control tests: less than 10%
Tumor virus polymerases
  inhibition of tumor virus polymerases: 44%
Normal polymerases
  activity on normal polymerases: practically inactive
[3]; 5μg
  % Control Activity of SSV-DNA-P at 5μg: 44%
[3]; 10μg
  % Control Activity of SSV-DNA-P at 10μg: 34%
[3]; 100μg
  % Control Activity of SSV-DNA-P at 100μg: 1%
[4]; 5μg
  % Control Activity of ME-DNA-P1 at 5μg: 102%
[4]; 10μg
  % Control Activity of ME-DNA-P1 at 10μg: 83%
[4]; 100μg
  % Control Activity of ME-DNA-P1 at 100μg: 11%
[5]; 5μg
  % Control Activity of ME-DNA-P2 at 5μg: 72%
[5]; 10μg
  % Control Activity of ME-DNA-P2 at 10μg: 83%
[5]; 100μg
  % Control Activity of ME-DNA-P2 at 100μg: 46%
[6]; read-out: % Control Activity of ME-RNA-P1 at 10μg
  remaining activity at 10 µg: 115%
[6]; read-out: % Control Activity of ME-RNA-P1 at 100μg
  remaining activity at 100 µg: 100%
[7]; read-out: % Control Activity of ME-RNA-P2 at 10μg
  remaining activity at 10 µg: 92%
[7]; read-out: % Control Activity of ME-RNA-P2 at 100μg
  remaining activity at 100 µg: 72%

## COC1C=COC2(C)Oc3c(C)c(O)c4c(O)c(c(C=NNC5CCCCCC5)c(O)c4c3C2=O)NC(=O)C(C)=CC=CC(C)C(O)C(C)C(O)C(C)C(OC(C)=O)C1C (stereo not shown) [Example 13]
[1]
  MIC: 10 µg/mL (≈ 12 µM)
[2]
  incorporation of H3-dTTP relative to that found in the control tests: less than 10%

## COC1C=COC2(C)Oc3c(C)c(O)c4c(O)c(c(C=NNC5CCCCCCC5)c(O)c4c3C2=O)NC(=O)C(C)=CC=CC(C)C(O)C(C)C(O)C(C)C(OC(C)=O)C1C (stereo not shown) [Example 14]
[1]
  MIC: 5 µg/mL (≈ 5.88 µM)
[2]
  incorporation of H3-dTTP relative to that found in the control tests: less than 10%

## COC1C=COC2(C)Oc3c(C)c(O)c4c(O)c(c(C=NN(Cc5ccccc5)c5ccccc5)c(O)c4c3C2=O)NC(=O)C(C)=CC=CC(C)C(O)C(C)C(O)C(C)C(OC(C)=O)C1C (stereo not shown) [Example 15]
[1]
  MIC: 2 µg/mL (≈ 2.21 µM)
[2]
  incorporation of H3-dTTP relative to that found in the control tests: less than 10%
